Assay results from patent US20140081017A1, “Histone Deacetylase Inhibitors for Enhancing Activity of Antifungal Agents” (METHYLGENE INC., priority 2012, published 2014).
Converted amounts (≈) assume the structure as drawn. Read-outs that look alike come from different tables or passages of the source.

Legend:
Candida glabrata = assay: Minimal Inhibitory Concentration (MIC) assay, broth microdilution per CLSI; format: cell-based; details: Nakaseomyces glabratus, read-out: Minimum Inhibitory Concentrations against Yeast Isolates, Candida glabrata;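 also: two read times 24 hr and 48 hr of incubation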
Outline: (§1)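 Yeast isolates were grown overnight at 35° C on Sabouraud dextrose agar, adjusted to 0.5 McFarland in saline and diluted 1:100 in RPMI buffered with 0.165 M MOPS, pH 7.0. Compounds in DMSO were serially diluted 1:1. After 24-48 hr at 35° C, MIC was the lowest concentration inhibiting visible growth.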

Candida albicans = assay: as above; format: cell-based; details: Candida albicans, read-out: Minimum Inhibitory Concentrations against Yeast Isolates, Candida albicans;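 also: two read times 24 hr and 48 hr of incubation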
Outline: as §1

Candida parapsilosis = assay: as above; format: cell-based; details: Lodderomyces parapsilosis, read-out: Minimum Inhibitory Concentrations against Yeast Isolates, Candida parapsilosis;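 also: two read times 24 hr and 48 hr of incubation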
Outline: as §1

C. glabrata = assay: Checkerboard FIC assay in combination with fluconazole (MIC alone and in combination, FICI); format: cell-based, Candida glabrata; details: for FICI of combination resulting in fluconazole MIC of: 2 ug/mL / FICI of combination resulting in fluconazole MIC of: 4 ug/mL / FICI of combination resulting in fluconazole MIC of: 8 ug/mL: FICI calculated using a fluconazole MIC of 16 μg/mL; for FICI of combination resulting in fluconazole MIC of: 2 ug/mL (value in parenthesis) / FICI of combination resulting in fluconazole MIC of: 4 ug/mL (value in parenthesis) / FICI of combination resulting in fluconazole MIC of: 8 ug/mL (value in parenthesis): FICI using a fluconazole MIC of 128 μg/mL; for MIC: Nakaseomyces glabratus; for Multiple of compound MIC to synergize fluconazole MIC to 2 ug/mL / Multiple of compound MIC to synergize fluconazole MIC to 4 ug/mL / Multiple of compound MIC to synergize fluconazole MIC to 8 ug/mL: concentration in combination as multiple of the compound's MIC alone; for Multiple of compound MIC to synergize fluconazole MIC to 2 ug/mL: fluconazole MIC 2 ug/mL; for Multiple of compound MIC to synergize fluconazole MIC to 4 ug/mL: fluconazole MIC 4 ug/mL; for Multiple of compound MIC to synergize fluconazole MIC to 8 ug/mL: fluconazole MIC 8 ug/mL; for Concentration of Methylgene compound to synergize fluconazole MIC to 2 ug/mL / Concentration of Methylgene compound to synergize fluconazole MIC to 4 ug/mL / Concentration of Methylgene compound to synergize fluconazole MIC to 8 ug/mL: in combination with fluconazole; for Concentration of Methylgene compound to synergize fluconazole MIC to 2 ug/mL: fluconazole MIC lowered to 2 ug/mL; for Concentration of Methylgene compound to synergize fluconazole MIC to 4 ug/mL: fluconazole MIC lowered to 4 ug/mL; for Concentration of Methylgene compound to synergize fluconazole MIC to 8 ug/mL: fluconazole MIC lowered to 8 ug/mL
Outline: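 C. glabrata was tested by CLSI broth microdilution checkerboard, crossing 2-fold dilutions of compound with 2-fold dilutions of fluconazole. The medium was RPMI with 0.165 M MOPS at pH 7.0, inoculated from a 0.5 McFarland suspension diluted 1:100, then incubated about 48 h at 35 °C. Single-agent MICs gave the FIC and FICI values.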

[1] = 24 hr reading (first value of cell 24 hr/48 hr)
[2] = 48 hr reading (second value of cell 24 hr/48 hr)
[3] = MIC of the example compound alone against C. glabrata in the checkerboard assay, approximately 48 hr, read-out: Methylgene MIC
[4] = test compound alone, C. glabrata, approx. 48 hr at 35° C., read-out: Compound MIC

SMILES	MIC (Candida glabrata; [1]) [µg/mL]	MIC (Candida glabrata; [2]) [µg/mL]	MIC (Candida albicans; [1]) [µg/mL]	MIC (Candida albicans; [2]) [µg/mL]	MIC (Candida parapsilosis; [1]) [µg/mL]	MIC (Candida parapsilosis; [2]) [µg/mL]	FICI of combination resulting in fluconazole MIC of: 2 ug/mL (C. glabrata; C. glabrata)	FICI of combination resulting in fluconazole MIC of: 4 ug/mL (C. glabrata; C. glabrata)	FICI of combination resulting in fluconazole MIC of: 8 ug/mL (C. glabrata; C. glabrata)	FICI of combination resulting in fluconazole MIC of: 2 ug/mL (value in parenthesis) (C. glabrata; C. glabrata)	FICI of combination resulting in fluconazole MIC of: 4 ug/mL (value in parenthesis) (C. glabrata; C. glabrata)	FICI of combination resulting in fluconazole MIC of: 8 ug/mL (value in parenthesis) (C. glabrata; C. glabrata)	MIC (C. glabrata; [3]) [µg/mL]	MIC (C. glabrata; [4]) [µg/mL]	Multiple of compound MIC to synergize fluconazole MIC to 2 ug/mL (C. glabrata)	Multiple of compound MIC to synergize fluconazole MIC to 4 ug/mL (C. glabrata)	Multiple of compound MIC to synergize fluconazole MIC to 8 ug/mL (C. glabrata)	Concentration of Methylgene compound to synergize fluconazole MIC to 2 ug/mL (C. glabrata; C. glabrata) [µg/mL]	Concentration of Methylgene compound to synergize fluconazole MIC to 4 ug/mL (C. glabrata; C. glabrata) [µg/mL]	Concentration of Methylgene compound to synergize fluconazole MIC to 8 ug/mL (C. glabrata; C. glabrata) [µg/mL]
COCCOCCOCC(=O)Nc1cccc(CCCCc2ccc(CC(=O)NO)cc2)c1 [Example 40, N-hydroxy-2-(4-(4-(3-(2-(2-(2-methoxyethoxy)ethoxy)acetamido)phenyl)butyl)phenyl)acetamide]	2 (≈ 4.36 µM)	32 (≈ 69.8 µM)	> 64	> 64	> 64	> 64	0.313	0.250	0.375	0.266	0.156	0.188	16	16	(¼x)	(⅛x)	(⅛x)	4	2	2
CN1CCC(C(=O)Nc2cccc(CCCCc3ccc(CC(=O)NO)cc3)c2)CC1 [Example 43, N-(3-(4-(4-(2-(hydroxyamino)-2-oxoethyl)phenyl)butyl)phenyl)-1-methylpiperidine-4-carboxamide]	16 (≈ 37.8 µM)	64 (≈ 151 µM)	> 64	> 64	> 64	> 64	0.313	0.250	0.313	0.266	0.156	0.125	> 16	> 16	–	–	–	8	4	2
O=C(Cc1ccc(CCCCc2ccccc2NC(=O)CO)cc1)NO [Example 46, N-hydroxy-2-(4-(4-(2-(2-hydroxyacetamido)phe-nyl)butyl)phenyl)acetamide]	64 (≈ 180 µM)	> 64	> 64	> 64	> 64	> 64	0.563	0.625	0.500	0.516	0.531	0.313	> 16	> 16	–	–	–	16	16	8

Results, then the molecule that gave them:

MIC (Candida glabrata; [1]) [µg/mL]	MIC (Candida glabrata; [2]) [µg/mL]	MIC (Candida albicans; [1]) [µg/mL]	MIC (Candida albicans; [2]) [µg/mL]	MIC (Candida parapsilosis; [1]) [µg/mL]	MIC (Candida parapsilosis; [2]) [µg/mL]	FICI of combination resulting in fluconazole MIC of: 2 ug/mL (C. glabrata; C. glabrata)	FICI of combination resulting in fluconazole MIC of: 4 ug/mL (C. glabrata; C. glabrata)	FICI of combination resulting in fluconazole MIC of: 8 ug/mL (C. glabrata; C. glabrata)	FICI of combination resulting in fluconazole MIC of: 2 ug/mL (value in parenthesis) (C. glabrata; C. glabrata)	FICI of combination resulting in fluconazole MIC of: 4 ug/mL (value in parenthesis) (C. glabrata; C. glabrata)	FICI of combination resulting in fluconazole MIC of: 8 ug/mL (value in parenthesis) (C. glabrata; C. glabrata)	MIC (C. glabrata; [3]) [µg/mL]	MIC (C. glabrata; [4]) [µg/mL]	Multiple of compound MIC to synergize fluconazole MIC to 2 ug/mL (C. glabrata)	Multiple of compound MIC to synergize fluconazole MIC to 4 ug/mL (C. glabrata)	Multiple of compound MIC to synergize fluconazole MIC to 8 ug/mL (C. glabrata)	Concentration of Methylgene compound to synergize fluconazole MIC to 2 ug/mL (C. glabrata; C. glabrata) [µg/mL]	Concentration of Methylgene compound to synergize fluconazole MIC to 4 ug/mL (C. glabrata; C. glabrata) [µg/mL]	Concentration of Methylgene compound to synergize fluconazole MIC to 8 ug/mL (C. glabrata; C. glabrata) [µg/mL]	SMILES
> 8	> 8	> 8	> 8	> 8	> 8	0.375	0.375	0.563	0.266	0.156	0.125	16	16	(¼x)	(⅛x)	( 1/16x)	4	2	1	CC(=O)Nc1ccc(CCCCc2ccc(CC(=O)NO)cc2)cc1 [Example 39, 2-(4-(4-(4-acetamidophenyl)butyl)phenyl)-N-hydroxyacetamide]
4 (≈ 11.2 µM)	16 (≈ 44.9 µM)	> 32	> 32	> 32	> 32	0.563	0.375	0.500	0.516	0.281	0.313	16	16	(½x)	(¼x)	(¼x)	8	4	4	O=C(Cc1ccc(CCCCc2cccc(NC(=O)CO)c2)cc1)NO [Example 41, N-hydroxy-2-(4-(4-(3-(2-hydroxyacetamido)phe-nyl)butyl)phenyl)acetamide]
8 (≈ 23.5 µM)	16 (≈ 47 µM)	> 32	> 32	> 32	> 32	0.313	0.375	0.375	0.266	0.281	0.188	16	16	(¼x)	(¼x)	(⅛x)	4	4	2	CC(=O)Nc1cccc(CCCCc2ccc(CC(=O)NO)cc2)c1 [Example 42, 2-(4-(4-(3-acetamidophenyl)butyl)phenyl)-N-hydroxyacetamide]
16 (≈ 36.1 µM)	64 (≈ 144 µM)	> 64	> 64	64 (≈ 144 µM)	> 64	0.188	0.250	0.313	0.141	0.156	0.125	> 16	> 16	–	–	–	4	4	2	CN(C)CCSCC(=O)Nc1cccc(CCCCc2ccc(CC(=O)NO)cc2)c1 [Example 44, 2-(2-(dimethylamino)ethylthio)-N-(3-(4-(4-(2-(hydroxyamino)-2-oxoethyl)phenyl)butyl)phenyl)acetamide]
32 (≈ 94 µM)	> 64	> 64	> 64	> 64	> 64	> 1.063	> 0.625	> 0.750	> 1.016	> 0.531	> 0.563	> 16	> 16	–	–	–	>16	16	16	CC(=O)Nc1ccccc1CCCCc1ccc(CC(=O)NO)cc1 [Example 45, 2-(4-(4-(2-acetamidophenyl)butyl)phenyl)-N-hydroxyacetamide]
